Assay results: paper PMC12040169 (PLOS Biology, 2025)

test: in vitro; conditions: human, hela cells, % viability

Compound	viability at 28.5 h, 10 µM [%]
Cc1cccc(-c2nc(C(N)=O)c3[nH]c(=O)n(-c4ccc(F)cc4)c3n2)c1 [CBK287632]	111
CNC(=O)CSc1ncnc2c1cnn2-c1ccc(F)cc1 [CBK287633]	94.4
COc1ccc(-c2ccc(SCC(=O)Nc3cc(C)on3)nn2)cc1 [CBK287634]	88.7
O=C(CSc1ccc(-n2ccnc2)nn1)Nc1cccnc1 [CBK287635]	97.6
COc1ccc(OC)c(NC(=O)CSc2ccc(-c3ccncc3)nn2)c1 [CBK287637]	86.6
Cc1ccc2nc(N(CCCN(C)C)C(=O)c3ccco3)sc2c1 [CBK287639]	114
CN(C)CCCN(C(=O)c1ccccc1)c1nc2ccc(F)cc2s1 [CBK287640]	97.4
COc1ccc2sc(Nc3ccc(F)cc3)nc2c1 [CBK287641]	95.3
COc1ccc(N2CC(NC(=O)Nc3ccccn3)CC2=O)cc1 (centres unmarked) [CBK287642]	96.9
CCN1CCc2nc(NC(=O)c3ccc(Cl)cc3)sc2C1 [CBK287644]	86.3
Cc1cc(N)n(-c2nc3c(cnn3-c3ccc(C)c(C)c3)c(=O)[nH]2)n1 [CBK287646]	97.8
Cc1ccccc1-n1ncc2c(N3CCCC3)ncnc21 [CBK287648]	99.2
COc1ccc(NC(=O)Cc2csc(NC(C)=O)n2)cc1 [CBK287650]	93.3
Cc1ccc(-n2c(=O)[nH]c3c(C(=O)Nc4ccccc4)cn(C)c3c2=O)cc1 [CBK287651]	93.9
COc1ccc(C(=O)c2oc3cc(NC(=O)c4cccnc4)ccc3c2C)cc1 [CBK287652]	85.1
Cc1cc(O)nc(-n2nc(C)cc2NC(=O)c2ccccc2)n1 [CBK287653]	101
Cc1cc(=O)[nH]c(-n2nc(C)cc2NC(=O)c2ccccc2C)n1 [CBK287654]	92.5
CS(=O)(=O)N1CCC2(CC1)NC(=O)N(Cc1ccccc1)C2=O [CBK287656]	100
COCC(=O)Nc1ccc2c(c1)NC(=O)C(C)(C)CO2 [CBK287658]	89
COc1cccc2cc(C(=O)Nc3cccc(C)n3)oc12 [CBK287659]	94.5
Cc1ccc(OCC(=O)Nc2ccc3c(c2)C(=O)Nc2ccccc2O3)cc1 [CBK287660]	88.2
Cn1c(SCC(=O)c2ccc(F)cc2)ncc(C(=O)Nc2ccccc2)c1=O [CBK287672]	111
Cc1ccc(NC(=O)c2cnc(SCc3ccccn3)n(C)c2=O)cc1 [CBK287673]	92.9

Compound	viability at 28.5 h, 10 µM [%]
Cc1ccc(NC(=O)CSc2nc3[nH]ncc3c(=O)[nH]2)cc1 [CBK287675]	93.5
O=C(CSc1nnc2ccc(-c3ccccc3)nn12)Nc1ccc(F)cc1 [CBK287676]	91.5
O=C(CSc1nnc2ccc(-c3ccccc3)nn12)NCc1ccccc1 [CBK287677]	67.6
c1ccc(CSc2nnc3ccc(-c4ccncc4)nn23)cc1 [CBK287681]	86.5
Cc1ccc(C(=O)Nc2cccc(-c3ccc4nnc(C)n4n3)c2)cc1 [CBK287683]	82.8
CCCc1cc(=O)[nH]c2nnc(SCC(=O)NC)n12 [CBK287685]	95.3
Cc1c(C)n2c(SCC(=O)N3CCCC3)nnc2[nH]c1=O [CBK287686]	99.4
CNC(=O)CSc1nnc2[nH]c(=O)c(C)c(C)n12 [CBK287687]	108
Cc1ccccc1-n1ncc2c(=O)n(CC(=O)N3CCCCC3)cnc21 [CBK287688]	108
Cc1ccccc1-n1ncc2c(=O)n(CC(=O)Nc3ccccc3)cnc21 [CBK287689]	98.4
CC(=O)Cn1cnc2c(cnn2-c2cccc(Cl)c2)c1=O [CBK287692]	84.4
Cc1cccc(-n2ncc3c(=O)n(CC(=O)Nc4ccccc4)cnc32)c1C [CBK287693]	95.1
COc1cc(-c2nnc(NC(C)=O)o2)cc(OC)c1OC [CBK287698]	95.2
COc1cc2nc(NC(=O)c3ccccc3)sc2cc1OC [CBK287701]	82.3
O=c1[nH]cc(S(=O)(=O)Nc2ccccc2)c(=O)[nH]1 [CBK287703]	93.5
CCn1c2c(c(=O)[nH]c1=O)C(c1ccccc1)C1=C(COC1=O)N2 (centres unmarked) [CBK287704]	95.6
Cc1ccc(S(=O)(=O)CC(=O)Nc2nc3ccc(C)cc3s2)cc1 [CBK287705]	89.8
Cc1ccc(S(=O)(=O)CCC(=O)Nc2ccc3sc(C)nc3c2)cc1 [CBK287706]	99.3
COc1ccccc1CNC(=O)c1cnc2sc(C)cn2c1=O [CBK287708]	104
COc1ccc(CCNC(=O)c2cnc3sc(C)cn3c2=O)cc1OC [CBK287709]	104
Cc1cn2c(=O)c(C(=O)Nc3ccccc3C)cnc2s1 [CBK287710]	94.1
Cc1cn2c(=O)c(C(=O)Nc3ccc(F)c(C(F)(F)F)c3)cnc2s1 [CBK287713]	77.9
COc1ccc(C)cc1NC(=O)c1cnc2sc(C)cn2c1=O [CBK287714]	105

Compound	viability at 28.5 h, 10 µM [%]
CC(=O)Nc1cccc(NC(=O)c2cnc3sc(C)cn3c2=O)c1 [CBK287715]	92
Cc1ccc(-n2c(=O)[nH]c3c(C(N)=O)nc(-c4ccccc4)nc32)cc1C [CBK287718]	84.7
Cc1cc(SCc2ccc(Cl)cc2)nc(=O)[nH]1 [CBK287719]	90.8
O=C(CN1CCC(c2nc3ccccc3[nH]2)CC1)Nc1ccc(F)cc1 [CBK287720]	90
CCS(=O)(=O)c1ccc(C(=O)Nc2nc3c(F)cc(F)cc3s2)cc1 [CBK287727]	106
O=C(NCc1cccnc1)C(=O)Nc1cc2c3c(c1)CCC(=O)N3CCC2 [CBK287728]	92
Cc1cc(O)c(C(=O)Nc2cccc(Cl)c2)c(=O)n1Cc1ccccn1 [CBK287729]	99.3
O=C(COc1cccc2c1CCNC2=O)Nc1ccccc1 [CBK287730]	89
Cc1ccc(NC(=O)N2CCn3cccc3C2c2cccnc2)cc1 (centres unmarked) [CBK287733]	87.1
Cc1ccc(CNC(=O)CSc2nc(C)c(C)c(=O)[nH]2)cc1 [CBK287735]	92.8
CCc1nc(C(N)=O)c2[nH]c(=O)n(-c3ccccc3F)c2n1 [CBK287739]	107
Cn1c(=O)c(C(=O)Nc2ccc(Cl)cc2)cc2cccnc21 [CBK287741]	94.4
COc1ccc(C(=O)Nc2nnc(-c3ccc(OC)c(OC)c3)o2)cc1OC [CBK287745]	93.7
COc1cccc2c1OC(c1cccnc1)N1N=C(c3cccc(O)c3)CC21 (centres unmarked) [CBK287747]	104
CCSc1ccnc2c1c(=O)n(C)c(=O)n2C [CBK287749]	98.9
CC1CCc2c(sc(NC(=O)c3ccno3)c2C(N)=O)C1 (centres unmarked) [CBK287752]	85.4
CC(=O)N1CCN(c2ncnc3c2nnn3-c2ccccc2)CC1 [CBK287753]	92.9
O=C(c1ccco1)N(CCCn1ccnc1)c1nc2c(F)cccc2s1 [CBK287758]	86.4
O=C(Cn1ncn2nc(-c3ccccc3)cc2c1=O)Nc1ccc(F)cc1 [CBK287759]	85.8
Cc1ccc(N2C(=O)CC(Sc3ncccc3C(=O)O)C2=O)cc1 (centres unmarked) [CBK287761]	87.7
CCNC(=O)c1cc2c(=O)n3ccccc3nc2n(C)c1=N [CBK287762]	90.7
CCOc1ccc(-c2csc(NC(=O)CC)n2)cc1 [CBK287764]	92.5
Cc1ccc(-c2csc3ncnc(Cl)c23)cc1 [CBK287765]	74.7

Compound	viability at 28.5 h, 10 µM [%]
COc1ccc2oc(-c3ccccc3)c(C(=O)Nc3nccs3)c2c1 [CBK287767]	71.8
O=C(CSc1nccn(-c2ccc(F)cc2)c1=O)Nc1ccc(F)cc1 [CBK287768]	91.2
COCCCNc1nc2c(-c3ccc(Cl)cc3)nnn2c2ccccc12 [CBK287770]	96.3
COc1ccc(CNC(=O)C2CCCN(c3cnc4ccccc4n3)C2)cc1 (centres unmarked) [CBK287772]	112
COc1cc(-c2noc(-c3cc(-c4ccccc4)n[nH]3)n2)cc(OC)c1OC [CBK287774]	92.3
Cc1nc2c(c(=O)c3ccccc3n2C)c(=O)n1Cc1ccco1 [CBK287776]	100
CCCCN1CC(=O)C(c2nc3ccccc3[nH]2)=C1N [CBK287777]	93.7
CN(C)CCCN1C(=O)C(O)=C(C(=O)c2ccccc2)C1c1ccccn1 (centres unmarked) [CBK287778]	110
Cc1cc(N2C(=O)c3oc4ccccc4c(=O)c3C2c2ccncc2)no1 (centres unmarked) [CBK287780]	103
Cn1c(C2CC(=O)N(c3ccc(Cl)cc3)C2)nc2ccccc21 (centres unmarked) [CBK287783]	87.1
CCCn1c(CN2CCOCC2)nc2ccccc21 [CBK287784]	99.1
O=C(Nc1ccncc1)c1ccc(S(=O)(=O)N2CCCC2)cc1 [CBK287786]	106
O=C(Nc1ccncc1)c1cc(-c2ccncc2)nc2ccccc12 [CBK287787]	100
O=C(CSc1ncnc2c1oc1ccccc12)NC1CCCC1 [CBK287788]	99.4
Cc1ccc(NC(=O)c2ccc(-n3nncc3C)cc2)cc1 [CBK287790]	80.9
CCCCNc1cc(C)nc2c(-c3ccccc3)cnn12 [CBK287792]	92.1
CCN1CCN(c2cc(C)nc3c(-c4ccccc4)cnn23)CC1 [CBK287793]	88.4
CCOc1cc(C)ccc1S(=O)(=O)n1nnc2ccccc21 [CBK287796]	97.3
Cc1nc2c(-c3ccccc3)cnn2c(N2CCCC2)c1C [CBK287799]	89
O=C(c1ccncc1)N1CCc2cc(S(=O)(=O)N3CCOCC3)ccc21 [CBK287800]	92.8
Cc1ccc2oc(C(=O)Nc3ccc(-n4cnnn4)cc3)c(C)c2c1 [CBK287804]	88.1
CCCNc1cc(C)nc2cc(-c3ccc(OC)c(OC)c3)nn12 [CBK287805]	88.2
COc1ccc2ncc(C#N)c(Nc3ccc(OC)c(OC)c3)c2c1 [CBK287808]	92.3
